# In ChEMBL document CHEMBL4483862, “Open-source discovery of chemical leads for next-generation chemoprotective antimalarials” (2018):
# Tested on: Plasmodium berghei
# Assay: Luciferase/luciferin-expressing antifolate-resistant parasites were used to infect a culture of HepG2 cells that were pre-incubated with compounds. Infected hepatocytes emit light due to the luciferase reaction. Assay results are presented as the percent inhibition of light emission compared to control. […]
# Type: functional
# Conditions: sporozoite; for IC90: read-out: LUCIFERASE INFECTION ASSAY - IC90
Structure (SMILES),IC90 [µM],further results
N=C(N)N/N=C/c1ccc(Cl)cc1Cl,5.8,"IC50 (HEPG2TOX_HILL_SLOPE 3.43, HEPG2TOX_R_SQUARED 0.626, PBLUC_HILL_SLOPE 2.34, PBLUC_R_SQUARED 0.812, read-out: LUCIFERASE INFECTION ASSAY - IC50): 2.27 µM"
COc1ccc(OS(=O)(=O)c2sc(Br)cc2Br)cc1,3.26,"IC50 (HEPG2TOX_HILL_SLOPE 3.4, HEPG2TOX_R_SQUARED 0.9, PBLUC_HILL_SLOPE 10.6, PBLUC_R_SQUARED 0.653, read-out: LUCIFERASE INFECTION ASSAY - IC50): 2.64 µM"
O=C(N/N=C(\Cc1ncc[nH]1)c1ccccc1)c1ccncc1,3.77,"IC50 (HEPG2TOX_HILL_SLOPE 3.38, HEPG2TOX_R_SQUARED 0.998, PBLUC_HILL_SLOPE 17.1, PBLUC_R_SQUARED 0.54, read-out: LUCIFERASE INFECTION ASSAY - IC50): 3.31 µM"
CCCOc1ccc(/C=N/NC(=S)Nc2ccccc2[N+](=O)[O-])c(O)c1,1,"IC50 (HEPG2TOX_HILL_SLOPE 3.34, HEPG2TOX_R_SQUARED 0.913, PBLUC_HILL_SLOPE 0.962, PBLUC_R_SQUARED 0.919, read-out: LUCIFERASE INFECTION ASSAY - IC50): 0.102 µM"
Cc1ccc2[nH]c3c(c2c1)CCCC3N (stereo not given),10.5,"IC50 (HEPG2TOX_HILL_SLOPE 3.36, HEPG2TOX_R_SQUARED 0.51, PBLUC_HILL_SLOPE 2.39, PBLUC_R_SQUARED 0.343, read-out: LUCIFERASE INFECTION ASSAY - IC50): 4.17 µM"
NC(=O)c1cccc(-c2ccc3ncc(-c4cccc(O)c4)n3n2)c1,7.72,"IC50 (HEPG2TOX_HILL_SLOPE 3.39, HEPG2TOX_R_SQUARED 0.986, PBLUC_HILL_SLOPE 6.74, PBLUC_R_SQUARED 0.592, read-out: LUCIFERASE INFECTION ASSAY - IC50): 5.57 µM"
Cn1c(C(C#N)C(=O)c2cc(-c3ccccc3)nc3ccccc23)nc2ccccc21 (stereo not given),7.46,"IC50 (HEPG2TOX_HILL_SLOPE 3.46, HEPG2TOX_R_SQUARED 0.527, PBLUC_HILL_SLOPE 3.86, PBLUC_R_SQUARED 0.794, read-out: LUCIFERASE INFECTION ASSAY - IC50): 4.22 µM"
COc1cc(NC(=O)Nc2cc(Cl)cc(Cl)c2)cc(C(F)(F)F)c1,0.748,"IC50 (HEPG2TOX_HILL_SLOPE 3.42, HEPG2TOX_R_SQUARED 0.986, PBLUC_HILL_SLOPE 0.84, PBLUC_R_SQUARED 0.7, read-out: LUCIFERASE INFECTION ASSAY - IC50): 0.0547 µM"
Cc1csc(NC(=O)Nc2cc(C(F)(F)F)cc(C(F)(F)F)c2)c1Cl,2.61,"IC50 (HEPG2TOX_HILL_SLOPE 3.35, HEPG2TOX_R_SQUARED 0.976, PBLUC_HILL_SLOPE 39.1, PBLUC_R_SQUARED 0.116, read-out: LUCIFERASE INFECTION ASSAY - IC50): 2.47 µM"
COc1cc(-c2nc3ccc(NC(=O)Nc4cccc(C(C)=O)c4)cn3n2)cc(OC)c1OC,1.53,"IC50 (HEPG2TOX_HILL_SLOPE 3.38, HEPG2TOX_R_SQUARED 0.754, PBLUC_HILL_SLOPE 9.64, PBLUC_R_SQUARED 0.711, read-out: LUCIFERASE INFECTION ASSAY - IC50): 1.21 µM"
CN(Cc1ccc2c(c1)OCO2)c1cnn(-c2nc3ccccc3[nH]2)c(=O)c1Cl,3.94,"IC50 (HEPG2TOX_HILL_SLOPE 3.37, 11.7, HEPG2TOX_R_SQUARED 0.995, 0.503, PBLUC_HILL_SLOPE 3.37, 1.13, PBLUC_R_SQUARED 0.633, 0.779, read-out: LUCIFERASE INFECTION ASSAY - IC50): 0.948 µM"
c1ccc(C[n+]2ccc(-c3ncc(-c4ccc5ccccc5c4)o3)cc2)cc1,4.15,"IC50 (HEPG2TOX_HILL_SLOPE 3.46, HEPG2TOX_R_SQUARED 0.77, PBLUC_HILL_SLOPE 12.4, 9.50, PBLUC_R_SQUARED 0.642, 0.816, read-out: LUCIFERASE INFECTION ASSAY - IC50): 3.38 µM"
O=C(Cn1cnc2c(cnn2-c2ccccc2)c1=O)c1c[nH]c2ccccc12,> 10,"IC50 (HEPG2TOX_HILL_SLOPE 3.41, HEPG2TOX_R_SQUARED 0.825, PBLUC_HILL_SLOPE 1.56, PBLUC_R_SQUARED 0.738, read-out: LUCIFERASE INFECTION ASSAY - IC50): 2.81 µM"
CCN(c1ccccc1)S(=O)(=O)c1cc(NC(=O)NC23CC4(C)CC(C)(CC(C)(C4)C2)C3)ccc1Cl,6.3,"IC50 (HEPG2TOX_HILL_SLOPE 3.39, HEPG2TOX_R_SQUARED 0.973, PBLUC_HILL_SLOPE 5.7, PBLUC_R_SQUARED 0.283, read-out: LUCIFERASE INFECTION ASSAY - IC50): 4.28 µM"
O=c1c(-c2cccc(Cl)c2)c[nH]n1-c1cccc(C(F)(F)F)c1,> 9.74,"IC50 (HEPG2TOX_HILL_SLOPE 3.35, HEPG2TOX_R_SQUARED 0.846, PBLUC_HILL_SLOPE 3.63, PBLUC_R_SQUARED 0.619, read-out: LUCIFERASE INFECTION ASSAY - IC50): 5.69 µM"
CCn1c2ccccc2c2cc(NC(=O)c3ccncc3)ccc21,3.82,"IC50 (HEPG2TOX_HILL_SLOPE 3.45, HEPG2TOX_R_SQUARED 0.806, PBLUC_HILL_SLOPE 11.3, PBLUC_R_SQUARED 0.493, read-out: LUCIFERASE INFECTION ASSAY - IC50): 3.14 µM"
O=C(Nc1cccc2ccccc12)N1CCN(c2ncccc2C(F)(F)F)CC1,0.105,"IC50 (HEPG2TOX_HILL_SLOPE 3.44, HEPG2TOX_R_SQUARED 0.402, PBLUC_HILL_SLOPE 82.3, PBLUC_R_SQUARED 0.563, read-out: LUCIFERASE INFECTION ASSAY - IC50): 0.102 µM"
N#Cc1ccc(-c2ccc3nnc(-c4cccc(C(F)(F)F)c4)n3c2)cc1,7.29,"IC50 (HEPG2TOX_HILL_SLOPE 3.44, HEPG2TOX_R_SQUARED 0.706, PBLUC_HILL_SLOPE 4.37, PBLUC_R_SQUARED 0.179, read-out: LUCIFERASE INFECTION ASSAY - IC50): 4.41 µM"
CC1Cc2cc(S(N)(=O)=O)ccc2N1CCCOc1ccc(F)cc1 (stereo not given),> 10,"IC50 (HEPG2TOX_HILL_SLOPE 3.41, HEPG2TOX_R_SQUARED 0.506, PBLUC_HILL_SLOPE 2.13, PBLUC_R_SQUARED 0.616, read-out: LUCIFERASE INFECTION ASSAY - IC50): 6.18 µM"
CCc1ccc(S(=O)(=O)N2[C@@H]3CC[C@@H](C3)[C@H]2c2nc3c(OC(C)C)cccc3[nH]2)cc1,> 10,"IC50 (HEPG2TOX_HILL_SLOPE 3.46, HEPG2TOX_R_SQUARED 0.87, PBLUC_HILL_SLOPE 16.2, PBLUC_R_SQUARED 0.535, read-out: LUCIFERASE INFECTION ASSAY - IC50): 9.38 µM"
COc1cc(NCc2cc(Cl)cc(Cl)c2OC)ccc1NC(=O)C(C)C,8.02,"IC50 (HEPG2TOX_HILL_SLOPE 3.35, HEPG2TOX_R_SQUARED 0.946, PBLUC_HILL_SLOPE 1.13, PBLUC_R_SQUARED 0.756, read-out: LUCIFERASE INFECTION ASSAY - IC50): 1.15 µM"
COc1ccccc1-c1cc(-c2ccccc2N(C)C)cnc1N,> 10.3,"IC50 (HEPG2TOX_HILL_SLOPE 3.39, HEPG2TOX_R_SQUARED 0.524, PBLUC_HILL_SLOPE 1.95, PBLUC_R_SQUARED 0.212, read-out: LUCIFERASE INFECTION ASSAY - IC50): 5.47 µM"
COc1ccc(-c2cnc3cnc(-c4ccsc4)cn23)cc1,4.82,"IC50 (HEPG2TOX_HILL_SLOPE 3.46, HEPG2TOX_R_SQUARED 0.703, PBLUC_HILL_SLOPE 8.9, PBLUC_R_SQUARED 0.737, read-out: LUCIFERASE INFECTION ASSAY - IC50): 3.76 µM"
Cc1ccc2nc(NC(=O)c3ccc(Cl)cc3)c(C(=O)NC3CCCC3)n2c1,3.09,"IC50 (HEPG2TOX_HILL_SLOPE 3.44, HEPG2TOX_R_SQUARED 0.175, PBLUC_HILL_SLOPE 15.5, PBLUC_R_SQUARED 0.331, read-out: LUCIFERASE INFECTION ASSAY - IC50): 2.68 µM"
CCOC(=O)c1cc(NC(=O)Nc2ccc(Cl)c(Cl)c2)ccc1Oc1cncc(Cl)c1,4.18,"IC50 (HEPG2TOX_HILL_SLOPE 3.45, HEPG2TOX_R_SQUARED 0.989, PBLUC_HILL_SLOPE 3.28, PBLUC_R_SQUARED 0.474, read-out: LUCIFERASE INFECTION ASSAY - IC50): 2.14 µM"
O=C(Nc1ccc(Cl)cc1)c1cc(-c2ccccc2)c(C(F)(F)F)s1,6.06,"IC50 (HEPG2TOX_HILL_SLOPE 3.44, HEPG2TOX_R_SQUARED 0.918, PBLUC_HILL_SLOPE 6.48, PBLUC_R_SQUARED 0.174, read-out: LUCIFERASE INFECTION ASSAY - IC50): 4.32 µM"
O=C(Nc1cc(Cl)ccc1OC(=O)c1ccc(C(F)(F)F)cc1)c1ccc(C(F)(F)F)cc1,2.9,"IC50 (HEPG2TOX_HILL_SLOPE 3.38, HEPG2TOX_R_SQUARED 0.98, PBLUC_HILL_SLOPE 2.51, PBLUC_R_SQUARED 0.591, read-out: LUCIFERASE INFECTION ASSAY - IC50): 1.21 µM"
CS(=O)(=O)c1ncc(Cl)c(C(=O)C(C#N)c2ccc3ccccc3n2)n1 (stereo not given),4.88,"IC50 (HEPG2TOX_HILL_SLOPE 3.45, HEPG2TOX_R_SQUARED 0.508, PBLUC_HILL_SLOPE 8.67, PBLUC_R_SQUARED 0.634, read-out: LUCIFERASE INFECTION ASSAY - IC50): 3.78 µM"
O=C(NCc1cc(Cl)c2c(c1)OCCCO2)c1cnn(Cc2ccccc2)c1,> 10,"IC50 (HEPG2TOX_HILL_SLOPE 3.36, HEPG2TOX_R_SQUARED 0.962, PBLUC_HILL_SLOPE 1.54, PBLUC_R_SQUARED 0.197, read-out: LUCIFERASE INFECTION ASSAY - IC50): 9.57 µM"
CC(C)[C@H](Nc1ccc(C(F)(F)F)cc1Cl)C(=O)Nc1ccc(C#N)cc1,3.14,"IC50 (HEPG2TOX_HILL_SLOPE 3.39, HEPG2TOX_R_SQUARED 0.849, PBLUC_HILL_SLOPE 25.1, 22.4, PBLUC_R_SQUARED 0.626, 0.774, read-out: LUCIFERASE INFECTION ASSAY - IC50): 2.85 µM"
